Where two headings read alike, the source gives them in different places. Marks after values point to notes of the source that are not given here.
Legend:
[1] = test system: Hprt +/+ mice; assay: Biochemical analysis of mouse serum after 6TG; type: in vivo; details: 25 mg/kg single i.p., serum 14 days after treatment
Protocol: Serum biochemistry parameters analyzed included blood urea nitrogen (BUN), aspartate amino transferase (AST), alanine amino transferase (ALT), creatine kinase (CK), and alkaline phosphatase (AP). The analyses were performed at Tufts University Veterinary Medical Diagnosis Laboratory with the chemical analyser Hitachi 747. Blood was collected from the posterior vena cava of Hprt deficient mice that were either treated with water, 25, 500, or 720 mg/kg 6TG i.p. and wildtype mice administered 25 mg/kg 6TG.
Hprt wildtype mice were treated with the sublethal dose of 25 mg/kg 6TG and Hprt mutant mice were treated with the sublethal doses of […] 6TG. Serum samples taken 14 days after treatment were evaluated for the levels of blood urea nitrogen (BUN), aspartate amino transferase (AST), alanine amino transferase (ALT), creatine kinase (CK) and alkaline phosphatase (AP). Elevated BUN is associated with dehydratation and/or renal insufficiency. Elevated activities of ALT and AST are characteristic for liver damage particularly necrosis, cirrhosis and/or hepatitis and also muscle trauma or myocardial infarction or myositis. Elevated AP is associated mostly with increased bone marrow metabolism and also with hapatocellular damage during hepatitis. CK is predominantly located in muscles and therefore its increased activities are consequence of muscular trauma, myocardial infarction or myopathic disorders.

[2] = test system: Hprt +/+ bone marrow of recipient mice; assay: Bone marrow replacement, Southern blot analysis of Y (donor) DNA; type: in vivo, mouse
Excerpt: The replacement of Hprt positive bone marrow with Hprt deficient bone marrow was examined by Southern blot analysis. Since recipients animals were females and donor bone marrow was of male origin, we have determined the fraction of cells containing chromosome (Y) in hematopoetic organs (bone marrow, spleen, thymus) and peripheral tissue (tail) in recipient animals. The Y chromosome was detected in 6TG treated and control animals.
Next Applicants tested whether “in vivo selection” without whole body irradiation can lead to complete bone marrow replacement. The wild type recipient mice were pretreated with 6TG (10 mg/kg twice in 48 hrs interval) or with sterile PBS and the Hprt deficient bone marrow was transplanted. The animals in the experimental group were 6TG pretreated followed with the 6TG in vivo selection protocol (described herein above). The control animals (6TG or PBS pretreated) were treated with sterile PBS buffer instead of 6TG. The degree of bone marrow replacement was evaluated by Southern blot analysis in hematopoetic tissues (bone marrow, spleen, thymus) and blood at the end of the 7th week post transplantation.

[3] = test system: Hprt+/+ mice, recipients of Hprt−/− bone marrow and non-recipient controls
Protocol: Recipient Hprt+/+ female mice were irradiated with 950 cGy of X-rays 24 hours before transplantation.
Briefly, bone marrow was flushed from femora and tibiae with 2 ml of Dulbecco's modified Eagle medium (D-MEM) supplemented with 10% of FBS and 100 units/ml penicillin, 100 mg/ml streptomycin. The isolated cells from the donor mouse were washed with PBS and injected into the tail vein of female Hprt +/+ recipients.
6TG (2-amino-6-mercaptopurine Sigma) was suspended in sterile PBS with a final concentration of 0.5 mg/ml prior to each i.p. application. All mice, recipients of bone marrow transplant and non-recipient controls, were treated with the same 6TG dose regimen. All mice were treated one hour after transplantation of recipients with an initial dose of 6TG at 10 mg/kg body weight. After 7 days the animals were treated with 4 doses of 5 mg/kg b.w. in 48 hrs intervals and followed with 5 days of recovery period.
This regimen was repeated 2 times with doses 5 mg/kg and 3 times with doses of 10 mg/kg with 5 days recovery periods in between treatments. Another control group of transplanted animals was treated with the same amount of sterile PBS.

[4] = test system: Hprt −/− mice; assay: Histopathological analysis of mouse tissues after 6TG
[5] = Hprt −/−, 6TG lethal 1148-2561 mg/kg, 3 mice
[6] = Hprt −/−, 6TG sublethal 25-720 mg/kg, 11 mice

## Nc1nc(S)c2[nH]cnc2n1 [6TG, 2-amino-6-merkaptopurine]
[1]
  ALT: 197 ± 66.8 u/l
  AP: 50.0 ± 33.4 u/l
  AST: 256.3 ± 73.9 u/l
  BUN: 45.0 ± 24.6 mg/dL
  CK: 73.3 ± 13.9 u/l
[2]; 6TG in vivo selection protocol, whether or not irradiation was used, end of 7th week post transplantation
  bone marrow replacement: 100%
[2]; irradiated recipients, 6TG selection in comparison to control animals
  engraftment of Hprt deficient bone marrow cells (containing Y chomosome): significantly increased engraftment
[3]; 6TG treated bone marrow (BM) recipients
  toxic effect of 6TG: did not show any apparent toxic effect
[3]; 6TG treated bone marrow recipients, first week after transplantation
  body weight decrease: about 10%
[3]; Bone marrow recipients +6TG, week 1
  Body weight: 91
[3]; Bone marrow recipients +6TG, week 2
  Body weight: 89
[3]; Bone marrow recipients +6TG, week 3
  Body weight: 90
[3]; Bone marrow recipients +6TG, week 4
  Body weight: 90
[3]; Bone marrow recipients +6TG, week 5
  Body weight: 88
[3]; Bone marrow recipients +6TG, week 6
  Body weight: 93
[3]; Controls (non-recipients) +6TG, week 1
  Body weight: 99
[3]; Controls (non-recipients) +6TG, week 2
  Body weight: 100
[3]; Controls (non-recipients) +6TG, week 3, these mice died
  Body weight: 86*
[3]; Controls (non-recipients) +6TG, week 4, these mice died
  Body weight: 79*
[3]; non-recipient controls, during 3 weeks of 6TG treatment
  loss of body weight: 25%
[4]; Hprt deficient animals
  hyperplasia dose below doses causing toxicity: 40 fold
[4]; Hprt deficient mice
  dose at which liver necrosis appears: ≥ 507 mg/kg
[4]; Hprt −/−, 25 mg/kg i.p.
  Kidneys Glomerulopathy, severity grade: 1
  Kidneys Intersticial inflamation, severity grade: 2
  Liver Centrilobular hypertrophy, severity grade: 3
[4]; Hprt −/−, 50 mg/kg i.p.
  Bone marrow Hypercellular, severity grade: 1.0 ± 1.0
  Liver Centrilobular hypertrophy, severity grade: 1.5 ± 0.5
  Liver Fatty change, severity grade: 1.0 ± 1.0
[4]; Hprt −/−, 100 mg/kg i.p.
  Bone marrow Hypercellular, severity grade: 1
  Liver Centrilobular hypertrophy, severity grade: 2
  Liver Extramedullary hematopoesis, severity grade: 1
  Liver Fatty change, severity grade: 1
[4]; Hprt −/−, 150 mg/kg i.p.
  Bone marrow Hypercellular, severity grade: 2
  Kidneys Glomerulopathy, severity grade: 3
  Kidneys Intersticial inflamation, severity grade: 2
  Kidneys Tubule basophilia, severity grade: 1
  Kidneys Tubule dilatation, severity grade: 2
  Liver Centrilobular hypertrophy, severity grade: 2
  Liver Extramedullary hematopoesis, severity grade: 1
  Liver Fatty change, severity grade: 3
[4]; Hprt −/−, 225 mg/kg i.p.
  Bone marrow Hypercellular, severity grade: 2
  Kidneys Glomerulopathy, severity grade: 2
  Kidneys Intersticial inflamation, severity grade: 2
  Kidneys Tubule basophilia, severity grade: 2
  Kidneys Tubule dilatation, severity grade: 2
  Liver Extramedullary hematopoesis, severity grade: 1
  Liver Fatty change, severity grade: 2
[4]; Hprt −/−, 338 mg/kg i.p.
  Bone marrow Hypercellular, severity grade: 1
  Kidneys Glomerulopathy, severity grade: 1
  Kidneys Intersticial inflamation, severity grade: 2
  Kidneys Tubule basophilia, severity grade: 1
  Kidneys Tubule dilatation, severity grade: 1
  Liver Centrilobular hypertrophy, severity grade: 1
  Liver Extramedullary hematopoesis, severity grade: 1
  Liver Fatty change, severity grade: 2
  Spleen Lymphoid depletion, severity grade: 1
[4]; Hprt −/−, 507 mg/kg i.p.
  Bone marrow Hypercellular, severity grade: 1.5 ± 0.5
  Kidneys Tubule basophilia, severity grade: 1.5 ± 0.5
  Kidneys Tubule dilatation, severity grade: 0.5 ± 0.5
  Liver Atrophy necrosis, severity grade: 1.0 ± 0.0
  Liver Centrilobular hypertrophy, severity grade: 2.0 ± 0.0
  Liver Extramedullary hematopoesis, severity grade: 1.5 ± 0.5
  Liver Fatty change, severity grade: 2.5 ± 0.5
[4]; Hprt −/−, 720 mg/kg i.p.
  Bone marrow Hypercellular, severity grade: 1.5 ± 0.5
  Kidneys Glomerulopathy, severity grade: 0.5 ± 0.5
  Kidneys Intersticial inflamation, severity grade: 1.5 ± 0.5
  Kidneys Tubule basophilia, severity grade: 1.5 ± 0.5
  Kidneys Tubule dilatation, severity grade: 1.5 ± 0.5
  Liver Atrophy necrosis, severity grade: 0.5 ± 0.5
  Liver Centrilobular hypertrophy, severity grade: 1.0 ± 0.0
  Liver Extramedullary hematopoesis, severity grade: 1.0 ± 0.0
  Liver Fatty change, severity grade: 1.5 ± 0.5
  Spleen Lymphoid depletion, severity grade: 0.5 ± 0.5
[4]; [5]
  Bone marrow Depletion, average of lesion severity grade: 2.3 ± 0.6
  Bone marrow Necrosis, average of lesion severity grade: 3.0 ± 0.0
  Gastric epithelium Atrophy, average of lesion severity grade: 0.6 ± 0.6
  Intestinal epithelium Atrophy, average of lesion severity grade: 0.6 ± 0.6
  Kidneys Tubule dilatation, average of lesion severity grade: 0.3 ± 0.6
  Liver Atrophy necrosis, average of lesion severity grade: 1.3 ± 0.6
  Liver Centrilobular hypertrophy, average of lesion severity grade: 1.0 ± 1.7
  Liver Extramedullary hematopoesis, average of lesion severity grade: 0.3 ± 0.6
  Liver Fatty change, average of lesion severity grade: 3.3 ± 0.6
  Spleen Lymphoid depletion, average of lesion severity grade: 3.7 ± 0.6
  Spleen Necrosis, average of lesion severity grade: 2.0 ± 1.7
[4]; [6]
  Bone marrow Hypercellular, average of lesion severity grade: 1.2 ± 0.6
  Kidneys Glomerulopathy, average of lesion severity grade: 1.0 ± 1.0
  Kidneys Intersticial inflamation, average of lesion severity grade: 1.5 ± 1.0
  Kidneys Tubule basophilia, average of lesion severity grade: 0.9 ± 0.8
  Kidneys Tubule dilatation, average of lesion severity grade: 0.9 ± 0.9
  Liver Atrophy necrosis, average of lesion severity grade: 0.2 ± 0.4
  Liver Centrilobular hypertrophy, average of lesion severity grade: 1.2 ± 0.8
  Liver Extramedullary hematopoesis, average of lesion severity grade: 0.8 ± 0.5
  Liver Fatty change, average of lesion severity grade: 1.6 ± 0.9
  Spleen Lymphoid depletion, average of lesion severity grade: 02 ± 0.4

— patent publication US20030032003A1, “IN VIVO SELECTION” (priority 2000, published 2003)
